Consider five compounds from paper PMC10465493, “Osteogenic induction of asiatic acid derivatives in human periodontal ligament stem cells” (Scientific Reports, 2023).

Series [1] is described as follows: Aqueous solubility by gravimetric method. The settings on record: thermodynamic from solid, ultrapure water, shaken 24 h, n = 6. Type of series: physicochemical. The protocol:
Aqueous solubility of AA and its derivatives were screened using a gravimetric method. Briefly, AA and the derivatives were dissolved in an excess amount in ultrapure water, and the samples were shaken at room temperature and 37 °C for 24 h. After that, the samples were centrifuged to separate the undissolved compounds. The specific volume of supernatants was then collected and lyophilised. The residual solid after lyophilisation was weighed using a 7-digit balance (XPR2u, Mettler Toledo, OH, USA), and the maximum solubility in water at the different temperature was calculated based on the volume of the collected solution of the compounds. […]

The nature of series [2]: Cell viability, PrestoBlue resazurin assay. The settings on record: human, hPDLSCs, 300 nM; for viability at 24 h, 0.3 µM: day 1, general medium. Type of series: cell-based, human. The protocol:
(§1) Stock solutions of AA, 501, 502, 503, and 506 were prepared in DMSO at the concentration of 100 µM, before diluting in culture medium to the desired concentration. Cell viability after exposure to the drugs was investigated using a PrestoBlue™ resazurin assay according to the manufacturer’s protocol. Cells with a density of 60,000 cells/well were plated in 24 well-plates and cultured in a normal growth medium for 24 h. Then the cells were treated with 300 nM AA and solutions of, 501, 502, 503, and 506. After 24-h and 5-day incubation, the cultures were treated with resazurin working solution, and the fluorescence intensity at an emission wavelength of 590 nm was measured with excitation of 560-nm wavelength using a microplate reader (Synergy H1, Biotek multi-mode reader, Winooski, VT, USA). Untreated cells were used as the control, and the experiment was performed on different cell lines of at least five donors.

Series [3] deals with hPDLSCs. As to the kind of experiment: mRNA expression of osteogenic marker genes by quantitative RT-PCR. Type of series: cell-based, human. The settings on record: for mRNA expression of all markers (BMP2, RUNX2, COL1A1, WNT3A): 100 nM (10 nM for 503). How it is done: Cells were seeded in 24 well-plates at a density of 60,000 cells/well and treated with AA or the derivatives at different concentrations. The media was changed every other day to ensure the continuous activities of AA derivatives. For Erk inhibition experiments, cells were pretreated with 2.5 nM Erk inhibitor (cat. No. 328006, Calbiochem, San Diego, CA, USA) for 2 h prior to the treatment of AA derivatives. At each time point, the total RNA was extracted using TRIzol® reagent following the standard protocol, and the RNA content and purity were measured using a microvolume spectrophotometer (NanoDrop™ One, Thermo Fisher Scientific, USA). Then, 1 μg of RNA sample was reverse-transcribed into complementary DNA (cDNA) using Improm II reverse transcription system (Promega, USA). The expression levels of the target genes were detected by real-time polymerase chain reaction using the SYBR green detection system (FastStart Essential DNA Green Master, Roche Diagnostics, Switzerland) on the MiniOpticon™ RT-PCR system (Bio-Rad, USA). The quantitative RT-PCR was carried out using a LightCycler® 96 (Roche Diagnostics, Switzerland). The transcript expression of GAPDH was used as the internal control. The relative gene expression analysis was performed using the CFX Manager software (Bio-Rad, USA). The expression value was normalised using an expression value of cellular housekeeping gene, GAPDH, and the control was considered for each respective day.

In another series the test system is osteoclastogenesis. Also noted: method as in PMID 32292339. The settings on record: cited from earlier work.
The conditions of series [4]: octanol/water, cited from earlier work.
In series [5] the test system is hPDLSCs. As to the kind of experiment: Cell viability, PrestoBlue resazurin assay. The format is cell-based, human. As to conditions: 300 nM, up to 5 days. The protocol:
as §1

Series [6] relates to hPDLSCs. Description: Alkaline phosphatase (ALP) activity assay. Type of series: cell-based, human. The settings on record: 100, 200, 300 nM, D3, normalised to total cellular protein. How it is done: At the designated time points, the ALP activity was measured. Cells treated with different concentrations of AA derivatives were collected, washed with PBS, and lysed with alkaline lysis buffer. The cell lysate was incubated with a mixture containing 2 mg/mL p-nitrophenyl phosphate, 0.1 M 2-amino-2-methyl-1-propanol and 2 mM MgCl2. After incubation at 37 °C for 30 min, the reaction was terminated by addition of 50 mM NaOH. The absorbance at 410 nm was measured, and the quantitative data was normalised by the amount of total cellular protein.

Series [7] has as its system hPDLSCs. Description: Von Kossa and Alizarin red S staining for mineralisation. The settings on record: 300 nM, 14 days, general medium, compared to osteogenic medium (positive control). The format is cell-based, human. How it is done:
In vitro mineralisation was visualised following calcium staining using Von Kossa’s method and Alizarin red S staining according to an established protocol. Briefly, on day 14, the cells were washed and fixed with cold methanol for 10 min before rinsing with deionised water. Von Kossa staining was performed by treating the fixed cells with 5%w/v silver nitrate solution for 30 min. For Alizarin Red S staining, the Alizarin Red S solution (0.5% w/v, pH 4.2) was incubated with the fixed cells for 5 min. The mineralised nodule formation was observed under a phase-contrast microscope (Nikon ECLIPSE Ts2, Nikon, USA). Cells cultured in a normal growth medium were used as the negative control. The cells cultured in an osteogenic medium (DMEM supplemented with […] ascorbic acid, 100 nM dexamethasone, and 10 mM β-glycerophosphate) were regarded as the positive control.

The test system of series [8] is hPDLSCs. Description: BMP2 protein expression by ELISA. Type of series: cell-based, human. As to conditions: 100 to 300 nM, D1 and D3, general medium. The protocol:
The expression levels of targeted proteins were analysed by a sandwich ELISA assay. Firstly, the cells were lysed, and the amount of protein was analysed using a Bio-Rad BCA protein assay kit (Bio‐Rad Laboratories, USA). Following the standard protocol, the target proteins were analysed using an ELISA kit (R&D Systems, USA).

Setting [9] is: 37 °C, read-out: Experimental solubility in water at 37 °C (average ± SD).
Where [10] appears, read: room temperature, read-out: Experimental solubility in water at room temperature (average ± SD).
Setting [11] is: 300 nM, days 1 and 3, general medium.

Converted amounts (≈) assume the structure as drawn. Like-named read-outs stand apart in the source and are kept apart here.

Turning to `CC(=O)OCC1(C)C(OC(C)=O)C(OC(C)=O)CC2(C)C1CCC1(C)C2CC=C2C3C(C)C(C)CCC3(C(=O)O)CCC21C` (stereo not drawn) [compound 501], the solubility at 24 h amounted to 654 ± 95.5 µg/mL (≈ 1060 µM) in [1] (setting [9]) and 272 ± 31.5 µg/mL (≈ 442 µM) in series [1] (setting [10]). In series [2] (day 5, general medium), the viability at 5 days, 0.3 µM is below 75%. The “mRNA expression of all markers (BMP2, RUNX2, COL1A1, WNT3A)” value (shortened to “mRNA expression of all markers”) in the series with hPDLSCs [3] (24 h, normal growth medium) was “no observable change”.

For the compound `C[C@H]1[C@H](C)CC[C@]2(C(=O)O)CC[C@]3(C)C(=CC[C@@H]4[C@@]5(C)C[C@@H](O)[C@H](O)[C@@](C)(CO)[C@@H]5CC[C@]43C)[C@H]12` [AA, Asiatic acid], in the series on osteoclastogenesis, the “Concentration required to inhibit osteoclastogenesis or bone loss” value is “up to 20 µM”. Besides, the “Theoretical log P” value is listed as 5.8 in [4] (ref 33) and 5.7 in [4] (ref 38, 39). In addition, the solubility at 24 h in series [1] (setting [9]) stood at 723 ± 184 µg/mL (≈ 1480 µM); in [1] (setting [10]), 541 ± 76.8 µg/mL (≈ 1110 µM). Also, in series [2], the viability at 24 h, 0.3 µM was above 90%. Moreover, the “Toxicity to hPDLSCs” value in the series with hPDLSCs [5] was “no significant toxicity”. Moreover, the “mRNA expression of all markers” value in the series on hPDLSCs [3] (24 h, normal growth medium) is “no observable change”.

For `CC(=O)OC[C@@]1(C)C2CC[C@]3(C)C(CC=C4[C@@H]5[C@@H](C)[C@H](C)CC[C@]5(C(=O)NCCCN(C)C)CC[C@]43C)[C@@]2(C)C[C@@H](OC(C)=O)[C@@H]1OC(C)=O` (stereo partly drawn) [compound 503], the solubility at 24 h in [1] (setting [9]) was 331 ± 82.6 µg/mL (≈ 473 µM); in series [1] (setting [10]) it was 164 ± 28.2 µg/mL (≈ 235 µM). In addition, the viability at 24 h, 0.3 µM in [2] is below 40%. Also, in the series with hPDLSCs [3] (24 h, normal growth medium), the “mRNA expression of all markers” value is reported as “no observable change”.

`C[C@H]1[C@H](C)CC[C@]2(C(=O)NCCCN(C)C)CC[C@]3(C)C(=CCC4[C@@]5(C)C[C@@H](O)[C@H](O)[C@@](C)(CO)C5CC[C@]43C)[C@H]12` (stereo partly drawn) [compound 506]: the ALP activity entry in the series on hPDLSCs [6] is reported as “dose-dependent increase”. Also, the “Tissue mineralisation (calcium deposition)” value in the series on hPDLSCs [7] is listed as “comparable to those same cells cultured in an osteogenic medium”. The BMP2 protein expression entry in the series on hPDLSCs [8] was “dose-dependent increase”. Moreover, the solubility at 24 h in series [1] (setting [9]) is 852 ± 85.6 µg/mL (≈ 1490 µM). Further, the solubility at 24 h in series [1] (setting [10]) was determined as 810 ± 36 µg/mL (≈ 1410 µM). In addition, the “Toxicity to hPDLSCs” value with hPDLSCs [5] is given as “no significant toxicity”. The “BMP2 mRNA expression” value in the series with hPDLSCs [3] (100 nM, 24 h, normal growth medium) was “high expression”. Besides, the “WNT3A expression with Erk inhibitor” value with hPDLSCs [3] (300 nM 506, pretreated with Erk inhibitor, general medium) is listed as “inhibited”. Further, the BMP2 expression entry in the series on hPDLSCs [3] (300 nM, day 1) was “High expression”. In the series with hPDLSCs [3] (300 nM, day 3), the BMP2 expression entry is given as “declining to a control level” and the WNT3A transcript level result was “elevated transcript level”. Further, in the series on hPDLSCs [3] (setting [11]), the COL1A1 expression level result was “no observable change” and the RUNX2 expression level entry is on record as “no observable change”. In addition, in the series on hPDLSCs [3] (300 nM, general medium), the “ALP expression level compared to control” value is listed as “enhanced”, the “BMP2 expression level compared to control” value was “enhanced”, the “IBSP expression level compared to control” value was “enhanced” and the “OSX expression level compared to control” value was “enhanced”. In addition, in the series with hPDLSCs [3] (100 to 300 nM, first day after exposure, general medium), the BMP2 gene expression result was “elevated transcript level at the lower concentrations (100 and 200 nM)”.

For the compound `CCCCOC(=O)C12CCC(C)C(C)C1C1=CCC3C4(C)CC(OC(C)=O)C(OC(C)=O)C(C)(COC(C)=O)C4CCC3(C)C1(C)CC2` (stereo not drawn) [compound 502], the solubility at 24 h in series [1] (setting [9]) stood at 14.5 ± 4.7 µg/mL (≈ 21.6 µM); in series [1] (setting [10]), 10 ± 1.5 µg/mL (≈ 14.9 µM).
